With `CCOC(=O)C1=C(C)NC(Nc2ccc(C(F)(F)F)cc2OC)=NC1c1ccc(F)cc1` (centres unmarked) [DHPM-KNV9, Ethyl 4-(4-fluorophenyl)-2-((2-methoxy-4-(trifluoromethyl)phenyl)amino)-6-methyl-1,4-dihydropyrimidine-5-carboxylate] the melting point was 213 to 214 °C.
In the case of `CCOC(=O)C1=C(C)NC(Nc2ccc3ncsc3c2)=NC1c1ccc(F)cc1` (centres unmarked) [DHPM-KNV7, Ethyl 2-(benzo[d]thiazol-6-ylamino)-4-(4-fluorophenyl)-6-methyl-1,4-dihydropyrimidine-5-carboxylate], the melting point is reported as 175 to 176 °C.
With `CCOC(=O)C1=C(C)NC(Nc2ccc(C(C)C)cc2)=NC1c1ccc(F)cc1` (centres unmarked) [DHPM-KNV4, Ethyl 4-(4-fluorophenyl)-2-((4-isopropylphenyl)amino)-6-methyl-1,4-dihydropyrimidine-5-carboxylate] the melting point was 125 to 126 °C.
`CCOC(=O)C1=C(C)NC(Nc2ccc(Br)cc2)=NC1c1ccc(F)cc1` (centres unmarked) [DHPM-KNV2, Ethyl 2-((4-bromophenyl)amino)-4-(4-fluorophenyl)-6-methyl-1,4-dihydropyrimidine-5-carboxylate] gave a melting point of 120 to 121 °C.
Compound `CCOC(=O)C1=C(C)NC(Nc2ccc(Cl)cc2)=NC1c1ccc(F)cc1` (centres unmarked) [DHPM-KNV3, Ethyl 2-((4-chlorophenyl)amino)-4-(4-fluorophenyl)-6-methyl-1,4-dihydropyrimidine-5-carboxylate] has a melting point of 188 to 189 °C.
`CCOC(=O)C1=C(C)NC(Nc2ccccc2)=NC1c1ccc(F)cc1` (centres unmarked) [DHPM-KNV1, Ethyl 4-(4-fluorophenyl)-6-methyl-2-(phenylamino)-1,4-dihydropyrimidine-5-carboxylate] gave a melting point of 92 to 93 °C.
For `CCOC(=O)C1=C(C)NC(Nc2ccccc2I)=NC1c1ccc(F)cc1` (centres unmarked) [DHPM-KNV8, Ethyl 4-(4-fluorophenyl)-2-((2-iodophenyl)amino)-6-methyl-1,4-dihydropyrimidine-5-carboxylate], the melting point was 229 to 230 °C.
Compound `CCOC(=O)C1=C(C)NC(Nc2ccc(Cl)c(C(F)(F)F)c2)=NC1c1ccc(F)cc1` (centres unmarked) [DHPM-KNV5, Ethyl 2-((4-chloro-3-(trifluoromethyl)phenyl)amino)-4-(4-fluorophenyl)-6-methyl-1,4-dihydropyrimidine-5-carboxylate] has a melting point of 176 to 177 °C.
